Data from patent publication US6492395B1, “Topical formulation of alkyl-, phenyl-pyridone” (Mepha AG, priority 2001, dated 2002).

Assay: Stability test, 6 months storage under standard storage conditions
Assay type: physicochemical
Protocol: Stability testing was carried out as above.

effect on physical stability of emulsions and other colloidal systems: emulsion destabiliser
Compound: Cc1ccc(=O)n(-c2ccccc2)c1 [5-methyl-1-phenyl-2-(1H)-pyridone]
